Experimental data as given in article PMC11637875, “Discovery of novel PARP1/NRP1 dual-targeting inhibitors with strong antitumor potency” (Frontiers in Pharmacology, 2024).

Tests used:
AXL = AXL (Homo sapiens, UniProt P30530); assay: Selectivity profile (123 kinase panel); format: biochemical
CSK = CSK (Homo sapiens, UniProt P41240); assay: Selectivity profile (123 kinase panel); format: biochemical
FRK = FRK (Homo sapiens, UniProt P42685); assay: Selectivity profile (123 kinase panel); format: biochemical
EPHA8 = EPHA8 (Homo sapiens, UniProt P29322); assay: Selectivity profile (123 kinase panel); format: biochemical
Sequence of EPHA8 (P29322 28-1005, species assumed): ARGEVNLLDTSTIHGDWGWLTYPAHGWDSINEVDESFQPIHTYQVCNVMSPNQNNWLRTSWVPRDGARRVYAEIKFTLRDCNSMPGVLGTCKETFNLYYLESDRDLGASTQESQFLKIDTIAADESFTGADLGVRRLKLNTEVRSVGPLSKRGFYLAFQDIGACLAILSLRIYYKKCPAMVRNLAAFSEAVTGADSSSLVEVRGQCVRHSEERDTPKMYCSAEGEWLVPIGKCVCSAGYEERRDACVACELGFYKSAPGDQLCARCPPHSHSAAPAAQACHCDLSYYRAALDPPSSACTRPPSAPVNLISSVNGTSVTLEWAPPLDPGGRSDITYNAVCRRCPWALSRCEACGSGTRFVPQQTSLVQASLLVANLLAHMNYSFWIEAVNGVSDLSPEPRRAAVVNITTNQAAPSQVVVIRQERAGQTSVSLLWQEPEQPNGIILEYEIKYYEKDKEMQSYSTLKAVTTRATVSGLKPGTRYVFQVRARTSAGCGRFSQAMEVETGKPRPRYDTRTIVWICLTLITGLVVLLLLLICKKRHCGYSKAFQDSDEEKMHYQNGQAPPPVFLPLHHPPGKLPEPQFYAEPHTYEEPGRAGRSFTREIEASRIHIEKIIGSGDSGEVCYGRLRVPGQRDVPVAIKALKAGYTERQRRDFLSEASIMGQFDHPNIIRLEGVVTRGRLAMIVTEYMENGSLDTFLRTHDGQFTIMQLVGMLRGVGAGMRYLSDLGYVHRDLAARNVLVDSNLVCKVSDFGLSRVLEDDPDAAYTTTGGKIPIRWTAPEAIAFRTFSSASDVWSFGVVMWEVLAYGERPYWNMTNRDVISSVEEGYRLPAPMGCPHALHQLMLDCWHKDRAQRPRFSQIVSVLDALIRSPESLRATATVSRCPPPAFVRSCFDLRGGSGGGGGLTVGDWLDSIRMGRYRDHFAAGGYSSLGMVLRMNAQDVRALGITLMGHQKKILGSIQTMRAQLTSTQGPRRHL

FLT4 = FLT4 (Homo sapiens, UniProt P35916); assay: Selectivity profile (123 kinase panel); format: biochemical
MST3 = MST3 (Homo sapiens, UniProt Q9Y6E0); assay: Selectivity profile (123 kinase panel); format: biochemical
Sequence of MST3 (Q9Y6E0 whole entry): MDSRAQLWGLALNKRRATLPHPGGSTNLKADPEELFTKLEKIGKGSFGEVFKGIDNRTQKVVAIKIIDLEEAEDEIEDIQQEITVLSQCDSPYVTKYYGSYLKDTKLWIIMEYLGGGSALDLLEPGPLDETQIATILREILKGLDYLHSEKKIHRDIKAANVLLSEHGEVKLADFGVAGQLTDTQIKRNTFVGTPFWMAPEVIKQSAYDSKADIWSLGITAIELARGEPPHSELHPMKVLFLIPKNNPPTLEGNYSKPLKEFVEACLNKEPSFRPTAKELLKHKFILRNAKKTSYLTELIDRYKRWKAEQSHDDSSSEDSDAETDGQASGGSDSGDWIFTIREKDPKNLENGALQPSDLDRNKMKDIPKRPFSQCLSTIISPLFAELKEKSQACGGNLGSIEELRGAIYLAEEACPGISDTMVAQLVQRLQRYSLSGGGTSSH

NEK9 = NEK9 (Homo sapiens, UniProt Q8TD19); assay: Selectivity profile (123 kinase panel); format: biochemical
FGFR2 = FGFR2 (Homo sapiens, UniProt P21802); assay: Selectivity profile (123 kinase panel); format: biochemical
PARP12 = PARP12 (Homo sapiens, UniProt Q9H0J9); assay: Selectivity profile (other isoforms of PARP and NRP family); format: biochemical
MDA-MB-231 cells = assay: In vitro antiproliferation assay (MTT); format: cell-based; conditions: Homo sapiens, MDA-MB-231
Method: Cell viability was measured by MTT assays. […] Afterward, the medium was removed. MTT (5 mg/mL) was dissolved in phosphate-buffered saline (PBS) and filter-sterilized, and then, 20 μL of the prepared MTT solution was added to each well, and the cells were incubated for another 4 h until a purple precipitate was visible. The supernatant was removed by centrifugation, and DMSO (150 μL/well) was added to dissolve the insoluble crystals. The absorbance was determined using an enzyme-linked immunosorbent assay reader at a test wavelength of 570 nm. The assays were performed three times in a parallel manner. The non-linear regression was used to plot a Dose-Response-Inhibition to determine the value of the IC50. […] The data were analyzed using GraphPad Prism 9 software.

JAK2 = JAK2 (Homo sapiens, UniProt O60674); assay: Selectivity profile (123 kinase panel); format: biochemical
ACK = ACK (Homo sapiens, UniProt Q07912); assay: Selectivity profile (123 kinase panel); format: biochemical
JNK3 = JNK3 (Homo sapiens, UniProt P53779); assay: Selectivity profile (123 kinase panel); format: biochemical
GLK = GLK (Homo sapiens, UniProt Q8IVH8); assay: Selectivity profile (123 kinase panel); format: biochemical
PARP2 = PARP2 (Homo sapiens, UniProt Q9UGN5); assay: Selectivity profile (other isoforms of PARP and NRP family); format: biochemical
DYRK1A = DYRK1A (Homo sapiens, UniProt Q13627); assay: Selectivity profile (123 kinase panel); format: biochemical
MUSK = MUSK (Homo sapiens, UniProt O15146); assay: Selectivity profile (123 kinase panel); format: biochemical
HUVECs = assay: Tube formation analysis; format: cell-based, human
Method: 50 μL of thawed Matrigel (#356234, BD Biosciences, United States) was added to a 96-well plate and incubated at 37°C for 30 min. After Matrigel gelation, HUVECs (1 × 10^5 cells/mL) were seeded into the basement membrane matrix. Each well was filled with 100 μL of cell suspension. […] Finally, five randomly selected fields per well were photographed with an inverted light microscope. The results were analyzed by ImageJ software to measure and record the number of branch points and tube length for each field. The specific steps are to download the “angiogenesis analyzer” plugin and click on ImageJ, Plugings, Macros, Install, angiogenesis analyzer in sequence. At least three parallel replicates were performed for each condition. The relative number of tubes formation was analyzed using GraphPad Prism 9 software.

EPHA2 = EPHA2 (Homo sapiens, UniProt P29317); assay: Selectivity profile (123 kinase panel); format: biochemical
NRP2 = NRP2 (Homo sapiens, UniProt O60462); assay: Selectivity profile (other isoforms of PARP and NRP family); format: biochemical
GSK3α = GSK3α (Homo sapiens, UniProt P49840); assay: Selectivity profile (123 kinase panel); format: biochemical
NEK1 = NEK1 (Homo sapiens, UniProt Q96PY6); assay: Selectivity profile (123 kinase panel); format: biochemical
CK1α = CK1α (Homo sapiens, UniProt P48729); assay: Selectivity profile (123 kinase panel); format: biochemical
AKT2 = AKT2 (Homo sapiens, UniProt P31751); assay: Selectivity profile (123 kinase panel); format: biochemical
Sequence of AKT2 (P31751 whole entry): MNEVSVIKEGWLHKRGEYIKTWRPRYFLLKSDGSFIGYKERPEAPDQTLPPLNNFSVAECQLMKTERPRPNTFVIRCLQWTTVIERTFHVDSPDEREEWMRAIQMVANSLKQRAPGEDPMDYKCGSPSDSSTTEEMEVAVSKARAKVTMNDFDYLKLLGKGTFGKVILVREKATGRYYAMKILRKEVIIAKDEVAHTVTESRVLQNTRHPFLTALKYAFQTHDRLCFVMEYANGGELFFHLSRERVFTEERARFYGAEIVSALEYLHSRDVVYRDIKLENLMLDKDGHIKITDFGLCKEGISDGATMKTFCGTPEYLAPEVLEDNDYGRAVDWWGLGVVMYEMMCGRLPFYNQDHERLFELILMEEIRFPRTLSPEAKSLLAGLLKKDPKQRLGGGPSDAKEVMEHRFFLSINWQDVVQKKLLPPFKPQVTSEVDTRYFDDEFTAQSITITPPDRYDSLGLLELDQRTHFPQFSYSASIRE

DDR1 = DDR1 (Homo sapiens, UniProt Q08345); assay: Selectivity profile (123 kinase panel); format: biochemical
Sequence of DDR1 (Q08345 19-913): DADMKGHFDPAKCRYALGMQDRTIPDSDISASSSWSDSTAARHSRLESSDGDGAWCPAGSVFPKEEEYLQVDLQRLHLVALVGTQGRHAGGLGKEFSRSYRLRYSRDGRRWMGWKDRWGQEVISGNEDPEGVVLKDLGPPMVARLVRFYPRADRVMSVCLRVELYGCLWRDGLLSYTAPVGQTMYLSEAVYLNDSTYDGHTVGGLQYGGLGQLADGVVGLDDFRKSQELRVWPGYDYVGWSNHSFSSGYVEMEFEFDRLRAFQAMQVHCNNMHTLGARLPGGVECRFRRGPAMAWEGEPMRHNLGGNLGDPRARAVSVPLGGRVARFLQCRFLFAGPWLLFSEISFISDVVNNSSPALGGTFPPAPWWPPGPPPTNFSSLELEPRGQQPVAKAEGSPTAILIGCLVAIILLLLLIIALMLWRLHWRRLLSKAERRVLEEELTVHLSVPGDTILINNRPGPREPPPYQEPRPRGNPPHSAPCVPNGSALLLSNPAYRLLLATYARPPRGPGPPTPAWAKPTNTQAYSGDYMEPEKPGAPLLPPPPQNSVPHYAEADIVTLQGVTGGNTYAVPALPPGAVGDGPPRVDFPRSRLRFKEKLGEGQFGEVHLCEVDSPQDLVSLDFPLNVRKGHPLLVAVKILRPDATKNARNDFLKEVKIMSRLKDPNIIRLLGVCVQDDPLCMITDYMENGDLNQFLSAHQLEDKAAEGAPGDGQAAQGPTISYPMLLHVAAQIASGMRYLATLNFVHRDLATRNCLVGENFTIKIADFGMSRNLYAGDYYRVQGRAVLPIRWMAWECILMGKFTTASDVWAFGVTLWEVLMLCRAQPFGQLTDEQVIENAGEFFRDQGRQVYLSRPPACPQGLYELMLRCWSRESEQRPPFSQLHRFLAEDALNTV

ALK = ALK (Homo sapiens, UniProt Q9UM73); assay: Selectivity profile (123 kinase panel); format: biochemical
Sequence of ALK (Q9UM73 19-1620): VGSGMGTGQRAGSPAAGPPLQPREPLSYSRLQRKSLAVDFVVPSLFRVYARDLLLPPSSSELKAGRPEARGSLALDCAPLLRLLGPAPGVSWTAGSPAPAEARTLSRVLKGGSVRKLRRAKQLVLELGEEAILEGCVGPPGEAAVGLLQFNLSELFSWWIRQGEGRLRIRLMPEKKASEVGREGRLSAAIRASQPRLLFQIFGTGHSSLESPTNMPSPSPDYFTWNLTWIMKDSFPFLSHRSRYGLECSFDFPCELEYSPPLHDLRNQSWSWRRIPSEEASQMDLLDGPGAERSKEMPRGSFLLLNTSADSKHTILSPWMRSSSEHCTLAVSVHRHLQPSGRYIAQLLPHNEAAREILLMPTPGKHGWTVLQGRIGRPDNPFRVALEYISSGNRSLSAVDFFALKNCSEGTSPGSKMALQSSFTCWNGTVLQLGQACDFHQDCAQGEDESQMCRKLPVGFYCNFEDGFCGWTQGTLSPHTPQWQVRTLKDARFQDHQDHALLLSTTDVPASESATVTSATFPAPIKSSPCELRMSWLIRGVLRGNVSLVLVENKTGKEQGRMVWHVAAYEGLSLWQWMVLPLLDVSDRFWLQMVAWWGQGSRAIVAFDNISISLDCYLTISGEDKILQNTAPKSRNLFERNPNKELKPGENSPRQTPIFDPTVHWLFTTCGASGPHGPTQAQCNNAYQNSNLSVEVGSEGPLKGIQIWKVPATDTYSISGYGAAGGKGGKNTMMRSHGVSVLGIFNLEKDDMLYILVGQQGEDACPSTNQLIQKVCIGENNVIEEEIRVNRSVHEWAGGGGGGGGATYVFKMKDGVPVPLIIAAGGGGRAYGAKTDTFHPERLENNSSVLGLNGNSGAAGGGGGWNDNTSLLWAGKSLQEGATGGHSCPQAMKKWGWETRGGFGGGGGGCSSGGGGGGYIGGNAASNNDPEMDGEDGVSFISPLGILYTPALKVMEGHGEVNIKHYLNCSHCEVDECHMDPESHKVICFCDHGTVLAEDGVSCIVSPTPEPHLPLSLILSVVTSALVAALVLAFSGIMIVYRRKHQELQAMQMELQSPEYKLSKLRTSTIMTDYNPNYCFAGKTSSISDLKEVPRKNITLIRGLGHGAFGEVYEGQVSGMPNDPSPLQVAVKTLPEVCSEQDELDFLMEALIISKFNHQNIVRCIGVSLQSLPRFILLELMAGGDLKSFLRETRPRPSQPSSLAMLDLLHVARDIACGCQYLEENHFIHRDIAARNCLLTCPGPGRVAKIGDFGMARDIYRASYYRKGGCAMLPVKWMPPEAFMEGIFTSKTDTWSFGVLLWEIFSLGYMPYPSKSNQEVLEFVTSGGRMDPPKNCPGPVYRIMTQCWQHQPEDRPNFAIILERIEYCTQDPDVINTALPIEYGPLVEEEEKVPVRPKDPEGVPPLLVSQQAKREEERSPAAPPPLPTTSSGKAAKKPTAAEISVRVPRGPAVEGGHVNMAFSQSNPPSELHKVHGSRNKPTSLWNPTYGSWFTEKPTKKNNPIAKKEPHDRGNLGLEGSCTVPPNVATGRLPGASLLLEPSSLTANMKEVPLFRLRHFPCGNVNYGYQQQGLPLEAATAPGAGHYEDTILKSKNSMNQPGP

DYRK1B = DYRK1B (Homo sapiens, UniProt Q9Y463); assay: Selectivity profile (123 kinase panel); format: biochemical
MRCKβ = MRCKβ (Homo sapiens, UniProt Q9Y5S2); assay: Selectivity profile (123 kinase panel); format: biochemical
MARK4 = MARK4 (Homo sapiens, UniProt Q96L34); assay: Selectivity profile (123 kinase panel); format: biochemical
JNK1 = JNK1 (Homo sapiens, UniProt P45983); assay: Selectivity profile (123 kinase panel); format: biochemical
MINK = MINK (Homo sapiens, UniProt Q8N4C8); assay: Selectivity profile (123 kinase panel); format: biochemical
MRCKα = MRCKα (Homo sapiens, UniProt Q5VT25); assay: Selectivity profile (123 kinase panel); format: biochemical
NEK2 = NEK2 (Homo sapiens, UniProt P51955); assay: Selectivity profile (123 kinase panel); format: biochemical
Sequence of NEK2 (P51955 whole entry): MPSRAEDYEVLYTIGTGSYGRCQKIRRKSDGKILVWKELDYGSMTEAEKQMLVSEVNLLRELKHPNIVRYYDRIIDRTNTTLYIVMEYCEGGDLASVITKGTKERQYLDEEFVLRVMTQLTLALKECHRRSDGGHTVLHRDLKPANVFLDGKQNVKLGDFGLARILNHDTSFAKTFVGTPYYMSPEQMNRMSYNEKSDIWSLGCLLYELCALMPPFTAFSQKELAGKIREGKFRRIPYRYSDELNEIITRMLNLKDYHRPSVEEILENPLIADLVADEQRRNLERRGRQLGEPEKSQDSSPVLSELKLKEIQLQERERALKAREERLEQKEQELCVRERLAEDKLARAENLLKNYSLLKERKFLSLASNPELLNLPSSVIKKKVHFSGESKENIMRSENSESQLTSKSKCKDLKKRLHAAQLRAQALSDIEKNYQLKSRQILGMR

DYRK3 = DYRK3 (Homo sapiens, UniProt O43781); assay: Selectivity profile (123 kinase panel); format: biochemical
FGFR3 = FGFR3 (Homo sapiens, UniProt P22607); assay: Selectivity profile (123 kinase panel); format: biochemical

- IC50 (AXL): > 10 µM
- IC50 (CSK): > 10 µM
- IC50 (FRK): > 10 µM
- IC50 (EPHA8): > 10 µM
- IC50 (FLT4): > 10 µM
- IC50 (MST3): > 10 µM
- IC50 (FGFR2): > 10 µM
- IC50 (PARP12): > 10 µM
- IC50 (MDA-MB-231 cells; 168 h, concentration needed to reduce cell growth by 50% following 7 days cell treatment, read-out: IC50): 0.21 µM
- IC50 (JAK2): > 10 µM
- IC50 (ACK): > 10 µM
- IC50 (JNK3): > 10 µM
- IC50 (GLK): > 10 µM
- IC50 (PARP2): > 10 µM
- IC50 (DYRK1A): > 10 µM
- IC50 (MUSK): > 10 µM
- IC50 (EPHA2): > 10 µM
- IC50 (NRP2): > 10 µM
- IC50 (GSK3α): > 10 µM
- IC50 (NEK1): > 10 µM
- IC50 (CK1α): > 10 µM
- IC50 (AKT2): > 10 µM
- IC50 (DDR1): > 10 µM
- IC50 (ALK): > 10 µM
- IC50 (DYRK1B): > 10 µM
- IC50 (MRCKβ): > 10 µM
- IC50 (MARK4): > 10 µM
- IC50 (JNK1): > 10 µM
- IC50 (MINK): > 10 µM
- IC50 (MRCKα): > 10 µM
- IC50 (NEK2): > 10 µM
- IC50 (DYRK3): > 10 µM
- IC50 (FGFR3): > 10 µM
SMILES: NC(N)=NCCC[C@H](NCN1CCN(C(=O)c2cc(Cc3n[nH]c(=O)c4ccccc34)ccc2F)CC1)C(=O)O [PPNR-4]
- IC50 (NEK9): > 10 µM
- inhibition at 2 µM (MDA-MB-231 cells; 2 μM, read-out: cell inhibition rate): > 80%
- tube formation (HUVECs; 2, 6, and 18 μM, compared with the control group): significantly interfered with tube formation in a dose-dependent manner
- activity at 6 µM (HUVECs; Homo sapiens, HUVEC, 8 h, 6 μM, 8 h, single replicates, read-out: Relative number of tube formations (% of control)): 6%
- activity at 18 µM (HUVECs; Homo sapiens, HUVEC, 8 h, 18 μM, 8 h, single replicates, read-out: Relative number of tube formations (% of control)): 0%
